# Reference: patent US6342360B1 (priority 1988, dated 2002)
# Where “and” joins values, the source holds several entries; their conditions need not be identical. Identical values can stand only once. Entries after “also recorded” stand apart in the source; their conditions may differ. Like-named read-outs stand apart in the source and are kept apart here.
# Assays:
# dopamine-D2 receptor [1] = target: T1, dopamine-D2 receptor (Rattus norvegicus, UniProt P61169); test: Adenylate cyclase activity in membranes from GH4ZR7 cells; assay type: biochemical; set-up: Full-length dopamine-D2 cDNA (17) was excised from λGT10 with Sal I; expressed in transfected cells; details: for efficacy: forskolin-stimulated adenylate cyclase
# Experimental: Adenylate Cyclase Assay: The conversion of α^32P-ATP to ^32P-cAMP was determined essentially as described by Salomon et al. (24). […] Assays carried out in triplicate were initiated by warming to 25° C. and terminated by cooling to 0° C. Trichloroacetic acid (100 μl of 30% solution) was added to each assay, and ^3H-cAMP (30,000 cpm) was added to each tube as an internal standard. The assay volume was increased to 1 ml by addition of water, and tubes were centrifuged (2000 g×10 min). cAMP in the supernatant was isolated by sequential chromatography on columns containing Dowex AG50W-X4 resin and neutral alumina. The 2-ml eluate from each alumina columntwas dissolved in 10 ml of Bio-Safe II (RPI, Mount Prospect, Ill.) for liquid scintillation counting. Calculations: Data from cAMP and PRL assays are expressed as means±standard error for triplicate determinations. Curve-fitting parameters were obtained by nonlinear regression analysis using the Enzfitter program (Elsevier Biosoft). Average affinity, EC50 and IC50 values are geometric means of the indicated number of experiments. In competition experiments, KI values were calculated from experimentally determined IC50 values by the method of Cheng and Prusoff (25).
# dopamine-D2 receptor [2] = target: T1, dopamine-D2 receptor; test: cAMP accumulation in GH4ZR7 cells
# Experimental: (§1) cAMP and PRL Assay: Cells were plated in 6-well, 35 mm dishes, 3-7 days prior to experimentation. Cells were pre-incubated in 2 ml/well warm F10+0.1% (−)-ascorbic acid+20 mM Tris (pH 7.2) (FAT) for 5-10 min, followed by addition of 1 ml/well of FAT+100 μm IBMX+experimental compounds, and incubated for 30 min. at 37° C. Experimental compounds were diluted 200- to 1000-fold from stock solutions made immediately prior to assay. […] Media were collected, and the cells were lysed immediately in 1 ml of boiling water. Cell lysates and media were centrifuged (2000×g, 10 min., 4° C.), and the supernatants collected for assay as cell extracts. Cell extracts and media samples were frozen at −20° C. until assay, if not assayed immediately. cAMP was assayed by a specific radioimmunoassay as described (22), with antibody used at 1:500 dilution. After 16 h incubation at 4° C., 20 μl of 10% BSA and 1 ml of 95% ethanol were added consecutively to precipitate the antibody-antigen complex. […] PRL was assayed in the media samples obtained as described above, except that IBMX was omitted during the 30 min incubation in FAT medium. PRL levels were determined by specific radioimmunoassay using Staphyloccus A lysate (IgSorb, The Enzyme Center, Malden, Mass.) to precipitate antigen-antibody complexes (23).
# [3] = target: T2, rat dopamine D-2 receptor (Rattus norvegicus, UniProt P61169)
# Experimental: Receptor binding assay: The membrane preparation was thawed, centrifuged at 24,000×g for 20 min., and resuspended in Tris-isosaline except where indicated. […] Assays were carried out in duplicate in a volume of 2 ml for saturation analyses or 1 ml for inhibition analyses. Incubations were initiated by the addition of 15-50 μg of protein, carried out at 37° for 50 min., and stopped by the addition of 10 ml of ice-cold wash buffer (10 mM Tris, pH 7.4, and 0.9% NaCl) to each assay. The samples were filtered through glass-fibre filters (Schleicher & Schuell No. 30) and washed with an additional 10 ml of wash buffer. […] Data were analyzed by nonlinear regression using the data analysis program Enzfitter (Elsevier-Biosoft). […] Averages for KI and KD values are the geometric means. In experiments designed to assess the effect of GTP and NaCl on the binding of DA, fresh tissue was used. Cells were harvested, centrifuged, and Mg^2+ resuspended in Tris-Mg^2+ (50 mM Tris, pH 7.4, and 4 mM MgCl2). Tissue was incubated for 15 min. at 37° in this buffer before re-centrifugation.
# [4] = target: T2, rat dopamine D-2 receptor; details: for blockade of inhibition of adenylate cyclase by 10 μM DA: 10 μM (+)-butaclamol in assay, pertussis toxin 50 ng/ml 16 hours on cells
# Experimental: Adenylate cyclase assay: The conversion of [α^32P]ATP to [^32P]cAMP was determined essentially as described by Salomon et al. (14). […] Assays were initiated by warming to 25° and terminated after 20 minutes by cooling to 0°, then adding trichloroacetic acid (100 μl of a 30% solution) to each assay. [^3H]Cyclic AMP (approximately 30,000 cpm) was added to each assay as an internal standard. The assay volume was brought up to 1 ml with water, and tubes were centrifuged for 10 min. at 2000×g. Cyclic AMP in the supernatant was isolated by sequential chromatography on columns containing Dowex AG50W-X4 resin and neutral alumina. The 2-ml eluate from each column of alumina was dissolved in 10 ml of Bio-Safe II (RPI, Mount Prospect, Ill.) for liquid scintillation counting. Dose-response curves for inhibition of adenylate cyclase activity by agonists were analyzed by nonlinear regression using the program Enzfitter. The data were fit to the equation:
# where E is the amount of enzyme activity, expressed as percentage of total stimulated activity, A is the concentration of agonists, EC50 is the concentration of agonist causing half-maximal inhibition of enzyme activity, Emax is the enzyme activity observed in the presence of maximally inhibiting concentrations of agonist, expressed as the percentage of total stimulated activity, and N is a slope factor. Averages of EC50 values are the geometric means.
# rat D2 dopamine receptor = rat D2 dopamine receptor (Rattus norvegicus, UniProt P61169)
# Experimental: (§2) The homogenizing solution was centrifuged at 800×g for 10 min. and the pellet was subjected to a second homogenization and centrifugation as before. The supernatants were pooled and centrifuged at 200,000×g for 1 hour. […] In some experiments 100 uM guanosine 5′-triphosphate was included. […] Incubations were initiated by the addition of 15-40 μg of protein, carried out at 37° C. for 50 minutes, and stopped by the addition of 10 ml of ice-cold wash buffer (10 mM Tris, pH=7.4, and 0.9% NaCl) to each assay. The samples were filtered through glass-fiber filters (Schleicher and Schuell No. 30) and washed with an additional 10 ml of wash buffer. The radioactivity retained on the filter was counted using a Beckman LS 1701 scintillation counter. Data were analyzed as previously described (29) except that curves were drawn using the data analysis program Enzfitter. The resulting IC50 values were converted to Ki values by the method of Cheng and Prusoff (30).
# [5] = target: human dopamine D2 receptor (Homo sapiens, UniProt P14416); test: [3H]-domperidone binding to L-hPitD2Zem membranes
# Experimental: The 2.5-kb human pituitary cDNA (hPitD2) was cloned into pZem3 (a gift from Dr. E. Mulvihill, Zymogenetics) and co-transfected with the pRSVneo gene into mouse Ltk^− cells by CaPo4 precipitation (10). A stable transfectant (L-hPitD2Zem) was selected and maintained in 750 μg/ml of G418 (Geneticin sulphate, Gibco). Twenty hours prior to the harvesting of membranes, these cells were incubated with 70 μM zinc sulphate. […] For the binding assays, membrane protein was used at 10-15 μg from L-hPitD2Zem, 50-75 μg from L-RGB2Zem-1, and 220-250 μg from rat striatum. […] The filters were washed twice in ice cold 50 mM Tris-HCl, pH 7.4. […] The Bmax, Kd, and IC50 values were determined as previously described (14).
# [6] = tested on: D2 dopamine receptors in rat striatal membranes; test: 3H-spiperone binding to rat striatal membranes; details: at the concentrations used
# Experimental: as §2
# dopamine-D2 receptor [7] = target: T1, dopamine-D2 receptor; test: Acute PRL release in GH4ZR7 cells; assay type: cell-based; set-up: Full-length dopamine-D2 cDNA (17) was excised from λGT10 with Sal I; expressed in transfected cells; details: 30 min
# Experimental: as §1
# Experimental for GH4C1 cells: as §1
# T1 sequence (P61169 1-415 isoform P61169-2): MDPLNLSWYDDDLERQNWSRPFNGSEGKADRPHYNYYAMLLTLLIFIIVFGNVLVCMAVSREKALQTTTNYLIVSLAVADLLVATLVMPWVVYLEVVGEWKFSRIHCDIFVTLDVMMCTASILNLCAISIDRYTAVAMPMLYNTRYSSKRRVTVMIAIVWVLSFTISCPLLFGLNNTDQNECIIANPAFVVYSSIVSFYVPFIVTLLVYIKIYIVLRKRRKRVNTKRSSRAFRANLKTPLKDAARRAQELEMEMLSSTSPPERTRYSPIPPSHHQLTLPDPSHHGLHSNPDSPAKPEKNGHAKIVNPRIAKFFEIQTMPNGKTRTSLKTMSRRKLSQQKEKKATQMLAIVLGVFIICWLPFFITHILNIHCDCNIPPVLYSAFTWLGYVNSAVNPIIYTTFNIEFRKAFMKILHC
# T2 sequence (P61169 1-415 isoform P61169-2): as above
# human dopamine D2 receptor, sequence (P14416 whole entry): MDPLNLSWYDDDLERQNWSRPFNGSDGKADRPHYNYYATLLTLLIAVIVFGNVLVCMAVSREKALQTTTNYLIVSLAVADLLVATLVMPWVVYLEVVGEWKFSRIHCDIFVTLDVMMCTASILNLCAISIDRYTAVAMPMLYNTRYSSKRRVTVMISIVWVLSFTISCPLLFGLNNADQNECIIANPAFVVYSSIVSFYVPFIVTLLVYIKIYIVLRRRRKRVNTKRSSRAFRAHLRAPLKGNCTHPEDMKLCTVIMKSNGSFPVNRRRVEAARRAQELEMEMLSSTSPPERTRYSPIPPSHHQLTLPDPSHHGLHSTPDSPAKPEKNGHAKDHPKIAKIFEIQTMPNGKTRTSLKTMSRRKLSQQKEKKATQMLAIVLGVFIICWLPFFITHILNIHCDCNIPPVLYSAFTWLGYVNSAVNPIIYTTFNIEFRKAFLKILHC
# rat D2 dopamine receptor, sequence (P61169 1-415 isoform P61169-2): as the sequence (P61169 1-415 isoform P61169-2) above
molecule,measurement,setting,value
"CCCN1CCCC(c2cccc(O)c2)C1 (single isomer, unassigned; (+)) [(+)3-PPP, 3-(3-hydroxyphenyl)-N-n-propylpiperidine]",efficacy,dopamine-D2 receptor [1],as efficacious as dopamine
"CCN1CCCC1CNC(=O)c1cc(S(N)(=O)=O)ccc1OC (single isomer, unassigned; (+)) [(+)-sulpiride]",blockade of dopamine inhibition of cAMP accumulation,dopamine-D2 receptor [2],did not block; also recorded: little or no effect
"CCCN1CCCC(c2cccc(O)c2)C1 (single isomer, unassigned; (-)) [(−)3-PPP, 3-(3-hydroxyphenyl)-N-n-propylpiperidine]",efficacy,dopamine-D2 receptor [1],did not consistently reduce
same,Hill coefficient,[3]; single experiment FIG. 9A,0.89
CCN1CCC[C@H]1CNC(=O)c1cc(S(N)(=O)=O)ccc1OC [(−)-sulpiride],blockade of dopamine inhibition of cAMP accumulation,dopamine-D2 receptor [2],blocked dopamine action
same,effect of antagonist alone on basal cAMP,dopamine-D2 receptor [2]; absence of dopamine,did not alter basal cAMP levels
CC(C)C[C@H]1C(=O)N2CCC[C@H]2[C@]2(O)O[C@](NC(=O)[C@@H]3C=C4c5cccc6[nH]c(Br)c(c56)C[C@H]4N(C)C3)(C(C)C)C(=O)N12 [bromocriptine],inhibition of forskolin-stimulated adenylate cyclase activity,dopamine-D2 receptor [1],23%
same,maximal inhibition,dopamine-D2 receptor [1],23%
same,EC50,dopamine-D2 receptor [1]; read-out: EC50,6 nM
same,EC50,"dopamine-D2 receptor [1]; read-out: EC50, inhibition of adenylate cyclase",5 nM
same,Ki,"[3]; [3H]spiroperidol 0.2 nM, GTP and NaCl present, geometric mean of 2 experiments",2.4 nM
same,rank among the six compounds tested,"[3]; inhibition of radioligand binding, LZR1",most potent
same,Ki,"[3]; read-out: KI for inhibition of [3H]spiroperidol binding, single experiment FIG. 9A, radioligand 230 pM",5 nM
same,Ki,"[3]; read-out: mean KI, 0.1 mM GTP and 120 mM NaCl, LZR1 membranes",2 nM
same,Hill coefficient,[3]; single experiment FIG. 9A,1.05
same,EC50,[4],45 nM and 40 nM
same,Max (maximal inhibition of adenylate cyclase activity),[4],17 ± 1%
same,agonist activity / efficacy,[4],less efficacious than DA
NCCc1ccc(O)c(O)c1 [dopamine],"effect on basal, VIP-stimulated or TRH-stimulated PRL secretion","GH4C1 cells; GH4C1 cells, data not shown",no effect
same,effect on extracellular cAMP levels,"GH4C1 cells; wild-type GH4C1 cells, VIP omitted or present",no effect
O=C(c1ccc(F)cc1)C1CCN(CCn2c(=O)[nH]c3ccccc3c2=O)CC1 [ketanserin],potency at inhibiting 3H-spiperone binding,rat D2 dopamine receptor; L-RGB2Zem-1 membranes,much less potent
CN1CCN2c3ccccc3Cc3ccccc3C2C1 (centres unmarked) [mianserin],inhibition of domperidone binding,[5]; [3H]-domperidone 1 nM,only at very high concentrations
O=C(CCCN1CCC2(CC1)C(=O)NCN2c1ccccc1)c1ccc(F)cc1 [spiperone],blockade of dopamine inhibition of cAMP accumulation,dopamine-D2 receptor [2],blocked dopamine action
same,effect of antagonist alone on basal cAMP,dopamine-D2 receptor [2],did not alter basal cAMP levels
CCN1CCCC1CNC(=O)c1cc(S(N)(=O)=O)ccc1OC (centres unmarked) [sulpiride],share of (+)-butaclamol-displaceable binding not inhibited,[6],10-15%
(+)-butaclamol,potency at inhibiting 3H-spiperone binding,rat D2 dopamine receptor,most potent inhibitors
same,blockade of inhibition of adenylate cyclase by 10 μM DA,[4],prevented
(−)-butaclamol,inhibition of domperidone binding,[5],only at very high concentrations
VIP: vasoactive intestinal peptide,VIP-induced enhancement of cAMP levels,dopamine-D2 receptor [2],8-12 times basal levels
same,total adenylate cyclase activity stimulated,"dopamine-D2 receptor [1]; 200 nM VIP, n=3",22±7 pmol/mg protein/min
same,enhancement of PRL secretion,dopamine-D2 receptor [7],1.5 fold
pertussis toxin,effect of pretreatment on inhibition of basal and VIP-stimulated cAMP by dopamine,"dopamine-D2 receptor [2]; pertussis toxin 50 ng/ml, 16 h",abolished
same,effect of pretreatment on dopamine inhibition of forskolin-stimulated adenylate cyclase,dopamine-D2 receptor [1]; pertussis toxin 16 h,uncoupled
same,blockade of inhibition of adenylate cyclase by 10 μM DA,[4],blocked
same,forskolin-stimulated adenylate cyclase activity versus control membranes,[4]; membranes from pertussis toxin-treated cells,approximately 2.5 fold
